Assay results reported in the supplement of paper PMC10307832.

Columns and labels:
Assay in all cases: relative viability (nuclei count vs DMSO), 5 days (fraction); higher = more cells survive
CAP-232 + Olaparib = compound: C[C@H]([C@@H](C(=O)N)NC(=O)[C@@H]1CSSC[C@@H](C(=O)N[C@H](C(=O)N[C@@H](C(=O)N[C@H](C(=O)N1)CCCCN)CC2=CNC3=CC=CC=C32)CC4=CC=C(C=C4)O)NC(=O)[C@@H](CC5=CC=CC=C5)N)O [CAP-232] + O=C(c1cc(Cc2n[nH]c(=O)c3ccccc23)ccc1F)N1CCN(C(=O)C2CC2)CC1 [Olaparib] (partner 8 µM)
How it was run: (§1)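 Relative viability divides the nuclei count in treated wells by that in vehicle wells. Lung cancer cell lines were seeded in 1536-well plates, dosed by pin tool the next day, and fixed and stained after 5 days in one step with final 0.05% Triton X-100, 1% formaldehyde and 1 ug/ml Hoechst. Dosing was a single drug or a fixed anchor-drug dose plus five library-drug doses (not always all listed) in √10 steps, and values are medians of duplicate plates imaged at 4×.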

CAP-232 + Tozasertib = compound: C[C@H]([C@@H](C(=O)N)NC(=O)[C@@H]1CSSC[C@@H](C(=O)N[C@H](C(=O)N[C@@H](C(=O)N[C@H](C(=O)N1)CCCCN)CC2=CNC3=CC=CC=C32)CC4=CC=C(C=C4)O)NC(=O)[C@@H](CC5=CC=CC=C5)N)O [CAP-232] + Cc1cc(Nc2cc(N3CCN(C)CC3)nc(Sc3ccc(NC(=O)C4CC4)cc3)n2)n[nH]1 [Tozasertib] (partner 0.1 µM)
How it was run: as §1

CAP-232 + OSI-027 = compound: C[C@H]([C@@H](C(=O)N)NC(=O)[C@@H]1CSSC[C@@H](C(=O)N[C@H](C(=O)N[C@@H](C(=O)N[C@H](C(=O)N1)CCCCN)CC2=CNC3=CC=CC=C32)CC4=CC=C(C=C4)O)NC(=O)[C@@H](CC5=CC=CC=C5)N)O [CAP-232] + COc1cccc2cc(-c3nc([C@H]4CC[C@H](C(=O)O)CC4)n4ncnc(N)c34)[nH]c12 [OSI-027] (partner 0.5 µM)
How it was run: as §1

CAP-232 + Navitoclax = compound: C[C@H]([C@@H](C(=O)N)NC(=O)[C@@H]1CSSC[C@@H](C(=O)N[C@H](C(=O)N[C@@H](C(=O)N[C@H](C(=O)N1)CCCCN)CC2=CNC3=CC=CC=C32)CC4=CC=C(C=C4)O)NC(=O)[C@@H](CC5=CC=CC=C5)N)O [CAP-232] + CC1(C)CCC(c2ccc(Cl)cc2)=C(CN2CCN(c3ccc(C(=O)NS(=O)(=O)c4ccc(N[C@H](CCN5CCOCC5)CSc5ccccc5)c(S(=O)(=O)C(F)(F)F)c4)cc3)CC2)C1 [Navitoclax] (partner 0.5 µM)
How it was run: as §1

CAP-232 + Trametinib = compound: C[C@H]([C@@H](C(=O)N)NC(=O)[C@@H]1CSSC[C@@H](C(=O)N[C@H](C(=O)N[C@@H](C(=O)N[C@H](C(=O)N1)CCCCN)CC2=CNC3=CC=CC=C32)CC4=CC=C(C=C4)O)NC(=O)[C@@H](CC5=CC=CC=C5)N)O [CAP-232] + CC(=O)Nc1cccc(-n2c(=O)n(C3CC3)c(=O)c3c(Nc4ccc(I)cc4F)n(C)c(=O)c(C)c32)c1 [Trametinib] (partner 0.02 µM)
How it was run: as §1

| Cell Line | relative viability (CAP-232 + Olaparib; first compound 0.4 µM) | relative viability (CAP-232 + Olaparib; first compound 1.265 µM) | relative viability (CAP-232 + Olaparib; first compound 4 µM) | relative viability (CAP-232 + Olaparib; first compound 12.65 µM) | relative viability (CAP-232 + Tozasertib; first compound 0.4 µM) | relative viability (CAP-232 + Tozasertib; first compound 1.265 µM) | relative viability (CAP-232 + Tozasertib; first compound 4 µM) | relative viability (CAP-232 + Tozasertib; first compound 12.65 µM) | relative viability (CAP-232 + OSI-027; first compound 0.4 µM) | relative viability (CAP-232 + OSI-027; first compound 1.265 µM) | relative viability (CAP-232 + OSI-027; first compound 4 µM) | relative viability (CAP-232 + OSI-027; first compound 12.65 µM) | relative viability (CAP-232 + Navitoclax; first compound 1.265 µM) | relative viability (CAP-232 + Navitoclax; first compound 4 µM) | relative viability (CAP-232 + Navitoclax; first compound 12.65 µM) | relative viability (CAP-232 + Trametinib; first compound 0.4 µM) | relative viability (CAP-232 + Trametinib; first compound 1.265 µM) | relative viability (CAP-232 + Trametinib; first compound 4 µM) | relative viability (CAP-232 + Trametinib; first compound 12.65 µM) | relative viability (CAP-232 + Navitoclax; first compound 0.4 µM) |
| --- | --- | --- | --- | --- | --- | --- | --- | --- | --- | --- | --- | --- | --- | --- | --- | --- | --- | --- | --- | --- |
| NCI-H727 | 0.705 | 0.613 | 0.757 | 0.648 | 0.491 | 0.525 | 0.698 | 0.499 | 0.593 | 0.515 | 0.795 | 0.421 | 0.431 | 0.377 | 0.347 | 0.383 | 0.397 | 0.442 | 0.415 | – |
| NCI-H838 | 0.883 | 0.808 | 0.836 | 0.705 | 0.274 | 0.273 | 0.286 | 0.231 | 0.342 | 0.434 | 0.461 | 0.314 | 1.19 | 1.28 | 0.556 | 0.59 | 0.555 | 0.626 | 0.39 | 1.21 |
| NCI-H1355 | 0.737 | 0.747 | 0.769 | 0.703 | 0.638 | 0.586 | 0.557 | 0.655 | 0.41 | 0.449 | 0.331 | 0.403 | 0.921 | 1.14 | 0.966 | 0.437 | 0.434 | 0.456 | 0.342 | 0.96 |
| NCI-H1395 | 0.436 | – | 0.462 | 0.264 | 0.677 | 0.793 | 0.765 | 0.79 | 0.647 | 0.532 | 0.67 | 0.707 | 1 | 1.07 | 0.927 | 1.17 | – | 1.06 | 1.1 | 1.14 |
| NCI-H1437 | 0.64 | 0.629 | 0.665 | 0.607 | 0.412 | 0.403 | 0.461 | 0.466 | 0.94 | 0.793 | 0.917 | 0.698 | 1.07 | 1.15 | 0.862 | 0.445 | 0.515 | 0.617 | 0.458 | 1.12 |
| NCI-H1650 | 1.04 | 0.799 | 0.836 | 0.493 | 0.427 | 0.38 | 0.391 | 0.213 | 0.637 | 0.491 | 0.756 | 0.215 | 1.08 | 1.36 | 0.478 | 0.631 | 0.557 | 0.54 | 0.215 | 1.34 |
| NCI-H1651 | 0.196 | 0.184 | 0.2 | 0.214 | 0.665 | 0.681 | 0.732 | 0.625 | 0.721 | 0.703 | 0.89 | 0.522 | 0.969 | 1.08 | 0.535 | 0.902 | 0.803 | 0.836 | 0.784 | 1.02 |
| NCI-H1666 | 0.819 | 0.75 | 0.816 | 0.664 | 0.631 | 0.574 | 0.673 | 0.345 | 0.973 | 0.809 | 0.907 | 0.769 | – | 1.08 | 0.931 | 0.699 | 0.859 | 0.924 | 0.734 | 0.89 |
| NCI-H1734 | 0.596 | 0.609 | 0.605 | 0.512 | 0.248 | 0.272 | 0.266 | 0.197 | 0.558 | 0.59 | 0.56 | 0.406 | 0.849 | 0.889 | 0.767 | 0.506 | 0.656 | 0.645 | 0.504 | 0.778 |
| NCI-H1755 | 0.911 | 0.881 | 0.935 | 0.824 | 0.581 | 0.498 | 0.58 | 0.498 | 0.699 | 0.713 | 0.754 | 0.653 | 1.1 | 1.1 | 0.949 | 0.765 | 0.724 | 0.792 | 0.771 | 0.6 |
| NCI-H1793 | 0.921 | 0.922 | 1.04 | 0.877 | 0.375 | 0.355 | 0.486 | 0.356 | 0.282 | 0.253 | 0.196 | 0.25 | 0.346 | 0.329 | 0.361 | 0.342 | 0.396 | 0.356 | 0.493 | 0.412 |
| NCI-H1915 | 0.243 | 0.248 | 0.249 | 0.267 | 0.593 | 0.432 | 0.444 | 0.466 | 0.566 | 0.601 | 0.672 | 0.325 | 0.75 | 0.771 | 0.766 | 0.207 | 0.307 | 0.291 | 0.371 | 0.825 |
| NCI-H1944 | 0.385 | 0.368 | 0.411 | 0.357 | 0.245 | 0.253 | 0.27 | 0.263 | 0.379 | 0.388 | 0.403 | 0.392 | 1.01 | 1.04 | 0.98 | 0.353 | 0.437 | 0.404 | 0.422 | 1.06 |
| NCI-H1975 | 0.825 | 0.894 | 1.04 | 0.363 | 0.968 | 0.75 | 0.94 | 0.482 | 0.856 | 0.646 | 0.91 | 0.487 | 1.1 | 1.28 | 0.853 | 0.368 | 0.262 | 0.743 | 0.225 | 1.24 |
